Experimental data: patent US9187484B2 (Southern Research Institute, priority 2012, dated 2015)

The compounds below were run against T1, LRRK2 (G2019S) (Homo sapiens, UniProt Q5S007, G2019S) (assay: LRRK2 inhibition, radiometric kinase assay with recombinant GST-LRRK2 (delta970) and peptide substrate). Details: GST-LRRK2 (delta970) G2019S 30 nM, ATP ~52 μM (Km), 30 min at 30° C.
T1 construct: Recombinant GST-LRRK2 (delta970), purified from baculovirus infected insect cells (SF9); GST (N); host or cells: baculovirus infected insect cells (SF9)
Assay type: biochemical
In short: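 Recombinant GST-LRRK2 (delta970) from SF9 cells, wild-type or G2019S, at 30 nM in 50 mM Tris HCl pH 7.4, 1 mM EDTA with 50 μM peptide substrate and 0.1% DMSO. ATP at Km (˜92 μM WT, ˜52 μM G2019S) with 10 mM MgCl2 and gamma-32-P label; 30 min at 30° C. Phosphocellulose capture, scintillation counting.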

T1 sequence (Q5S007 970-2527 G2019S limits assumed): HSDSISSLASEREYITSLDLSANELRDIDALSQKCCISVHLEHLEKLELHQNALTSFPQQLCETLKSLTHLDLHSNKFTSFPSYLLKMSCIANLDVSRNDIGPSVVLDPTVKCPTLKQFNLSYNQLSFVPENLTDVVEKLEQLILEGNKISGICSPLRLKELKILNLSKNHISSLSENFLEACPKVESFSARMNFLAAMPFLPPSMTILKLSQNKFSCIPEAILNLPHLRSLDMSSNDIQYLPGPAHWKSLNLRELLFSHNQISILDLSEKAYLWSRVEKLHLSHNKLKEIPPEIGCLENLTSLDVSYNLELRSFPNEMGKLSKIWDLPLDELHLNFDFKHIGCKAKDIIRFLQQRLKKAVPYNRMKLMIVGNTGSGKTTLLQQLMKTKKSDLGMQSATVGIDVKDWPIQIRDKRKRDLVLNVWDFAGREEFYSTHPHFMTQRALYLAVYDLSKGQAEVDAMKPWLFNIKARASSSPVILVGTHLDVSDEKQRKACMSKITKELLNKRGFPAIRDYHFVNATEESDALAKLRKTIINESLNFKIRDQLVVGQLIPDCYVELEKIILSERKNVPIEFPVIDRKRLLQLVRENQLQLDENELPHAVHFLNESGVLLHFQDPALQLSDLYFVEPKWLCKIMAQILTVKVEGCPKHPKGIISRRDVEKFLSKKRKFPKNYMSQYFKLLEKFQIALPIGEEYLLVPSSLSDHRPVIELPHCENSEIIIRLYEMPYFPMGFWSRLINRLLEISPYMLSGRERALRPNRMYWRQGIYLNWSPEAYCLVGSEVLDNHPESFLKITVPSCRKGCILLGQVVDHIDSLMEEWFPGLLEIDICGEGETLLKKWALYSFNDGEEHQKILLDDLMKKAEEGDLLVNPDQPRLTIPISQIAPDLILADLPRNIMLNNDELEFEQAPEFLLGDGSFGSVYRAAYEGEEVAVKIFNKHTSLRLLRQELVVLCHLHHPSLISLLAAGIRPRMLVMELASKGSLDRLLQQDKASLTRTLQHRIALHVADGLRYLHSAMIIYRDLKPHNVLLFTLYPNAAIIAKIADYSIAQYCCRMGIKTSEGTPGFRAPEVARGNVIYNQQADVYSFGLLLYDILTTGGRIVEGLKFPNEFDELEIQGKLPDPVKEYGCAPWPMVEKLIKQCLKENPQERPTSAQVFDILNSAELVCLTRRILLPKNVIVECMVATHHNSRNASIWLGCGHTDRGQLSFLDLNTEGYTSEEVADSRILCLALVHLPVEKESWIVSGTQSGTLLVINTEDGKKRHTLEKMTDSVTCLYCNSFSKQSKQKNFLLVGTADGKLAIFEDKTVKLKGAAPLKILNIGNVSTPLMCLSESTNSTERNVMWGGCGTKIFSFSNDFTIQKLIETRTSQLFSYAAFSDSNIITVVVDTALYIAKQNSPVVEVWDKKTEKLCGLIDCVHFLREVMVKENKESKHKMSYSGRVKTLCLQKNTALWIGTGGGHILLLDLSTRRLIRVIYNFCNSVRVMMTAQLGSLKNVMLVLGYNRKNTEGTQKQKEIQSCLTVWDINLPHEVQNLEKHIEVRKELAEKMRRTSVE

Row | IC50 | SMILES
1 | < 100 nM | CCC(Sc1ccc2nnc(-c3cccs3)n2n1)C(=O)N1CCCCC1 (stereo not drawn) [Example 34, 1-(piperidin-1-yl)-2-((3-(thiophen-2-yl)-[1,2,4]triazolo[4,3-b]pyridazin-6-yl)thio)butan-1-one]
2 | < 100 nM | CC(Sc1ccc2nnc(-c3cccs3)n2n1)C(=O)N1CCCCC1 (stereo not drawn) [Example 90, 1-(piperidin-1-yl)-2-((3-(thiophen-2-yl)-[1,2,4]triazolo[4,3-b]pyridazin-6-yl)thio)propan-1-one]
3 | 100 to 1000 nM | CC(Sc1ccc2nnc(-c3nccs3)n2n1)C(=O)N1CCCCC1 (stereo not drawn) [Example 125, 1-(piperidin-1-yl)-2-((3-(thiazol-2-yl)-[1,2,4]triazolo[4,3-b]pyridazin-6-yl)thio)propan-1-one]
4 | ≥ 5000 nM | CCC(Sc1ccc2nnc(-c3ccccc3OC)n2n1)C(N)=O (stereo not drawn) [Example 69, 2-((3-(2-methoxyphenyl)-[1,2,4]triazolo[4,3-b]pyridazin-6-yl)thio)butanamide]
5 | 1000 to 5000 nM | CCOC(=O)C(CC)Sc1ccc2nnc(-c3cccc(OC)c3)n2n1 (stereo not drawn) [Example 71, ethyl 2-((3-(3-methoxyphenyl)-[1,2,4]triazolo[4,3-b]pyridazin-6-yl)thio)butanoate]
6 | 100 to 1000 nM | CCC(Sc1ccc2nnc(-c3ccc(Cl)s3)n2n1)C(=O)N1CCCCC1 (stereo not drawn) [Example 62, 2-((3-(5-chlorothiophen-2-yl)-[1,2,4]triazolo[4,3-b]pyridazin-6-yl)thio)-1-(piperidin-1-yl)butan-1-one]
7 | 100 to 1000 nM | CCC(Sc1ccc2nnc(-c3cccc(OC)c3)n2n1)C(N)=O (stereo not drawn) [Example 72, 2-((3-(3-methoxyphenyl)-[1,2,4]triazolo[4,3-b]pyridazin-6-yl)thio)butanamide]
8 | 100 to 1000 nM | CCC(Sc1ccc2nnc(-c3cccc(F)c3)n2n1)C(N)=O (stereo not drawn) [Example 81, 2-((3-(3-fluorophenyl)-[1,2,4]triazolo[4,3-b]pyridazin-6-yl)thio)butanamide]
9 | 100 to 1000 nM | CC(Sc1ccc2nnc(-c3nccs3)n2n1)C(=O)N1CCC1 (stereo not drawn) [Example 126, 1-(azetidin-1-yl)-2-((3-(thiazol-2-yl)-[1,2,4]triazolo[4,3-b]pyridazin-6-yl)thio)propan-1-one]
10 | 100 to 1000 nM | CCC(Sc1ccc2nnc(-c3cccs3)n2n1)C(=O)NC1CCCCC1 (stereo not drawn) [Example 52, N-cyclohexyl-2-((3-(thiophen-2-yl)-[1,2,4]triazolo[4,3-b]pyridazin-6-yl)thio)butanamide]
11 | 100 to 1000 nM | NC(=O)CSc1ccc2nnc(-c3cccs3)n2n1 [Example 3, 2-((3-(thiophen-2-yl)-[1,2,4]triazolo[4,3-b]pyridazin-6-yl)thio)acetamide]
12 | 100 to 1000 nM | CCC(Sc1ccc2nnc(-c3ccc(F)c(F)c3)n2n1)C(=O)O (stereo not drawn) [Example 54, 2-((3-(3,4-difluorophenyl)-[1,2,4]triazolo[4,3-b]pyridazin-6-yl)thio)butanoic acid]
13 | 1000 to 5000 nM | CCCCC(Sc1ccc2nnc(-c3cccs3)n2n1)C(=O)O (stereo not drawn) [Example 41, 2-((3-(thiophen-2-yl)-[1,2,4]triazolo[4,3-b]pyridazin-6-yl)thio)hexanoic acid]
14 | ≥ 5000 nM | O=C(O)CSc1ccc2nnc(-c3cc4ccccc4o3)n2n1 [Example 31, 2-((3-(benzofuran-2-yl)-[1,2,4]triazolo[4,3-b]pyridazin-6-yl)thio)acetic acid]
15 | 1000 to 5000 nM | CCCN(CCC)C(=O)C(C)Sc1ccc2nnc(-c3cccs3)n2n1 (stereo not drawn) [Example 123, N,N-dipropyl-2-((3-(thiophen-2-yl)-[1,2,4]triazolo[4,3-b]pyridazin-6-yl)thio)propanamide]

What follows are compounds tested on G2019S-LRRK2 (assay: LPS-induced TNF-alpha in primary macrophages over-expressing G2019S-LRRK2). Details: 5 μM 1 hour prior to LPS stimulation (100 ng/ml), TNF-alpha measured 6 hours later.
Assay type: cell-based, mice
From the text: Recently, high levels of LRRK2 expression in primary microglia that are the immune cells of the nervous system have been discovered (Moehle et al., J. Neuroscience (2012), PMID 22302802). […] More recently, LRRK2 has also been detected in primary macrophages, specifically macrophages isolated after thioglycolate exposures in mice. To assess whether Example 90 can inhibit the G2019S-LRRK2 induced increase in TNF-alpha to wild-type levels of TNF-alpha induction by LPS, primary macrophages were exposed in culture to 5 μM 1 hour prior to LPS stimulation (100 ng/ml), and TNF-alpha levels were measured 6 hours later.

Row | SMILES | TNF-alpha levels (G2019S-LRRK2 induced increase)
16 | CC(Sc1ccc2nnc(-c3cccs3)n2n1)C(=O)N1CCCCC1 (stereo not drawn) [Example 90, 1-(piperidin-1-yl)-2-((3-(thiophen-2-yl)-[1,2,4]triazolo[4,3-b]pyridazin-6-yl)thio)propan-1-one] | successfully returned G2019S-LRRK2 over-expressing cells back to WT levels

What follows are compounds tested on WT-LRRK2 or G2019S-LRRK2 (assay: Inhibition of LRRK2 phosphorylation (pS935 antibody) in lysates of transfected HEK-293T cells). Details: HEK-293T cells transiently transfected with either WT-LRRK2 or G2019S-LRRK2.
Assay type: cell-based
From the text: To test whether Example 90 and Example 34 can inhibit LRRK2 phosphorylation, an antibody commercially available from Epitomics directed against the serine residue number 935 on LRRK2 from lysates generated from HEK-293T cells transiently transfected with either WT-LRRK2 or G2019S-LRRK2 protein.

Row | SMILES | levels of pS935 on LRRK2
17 | CCC(Sc1ccc2nnc(-c3cccs3)n2n1)C(=O)N1CCCCC1 (stereo not drawn) [Example 34, 1-(piperidin-1-yl)-2-((3-(thiophen-2-yl)-[1,2,4]triazolo[4,3-b]pyridazin-6-yl)thio)butan-1-one] | partially inhibited
18 | CC(Sc1ccc2nnc(-c3cccs3)n2n1)C(=O)N1CCCCC1 (stereo not drawn) [Example 90, 1-(piperidin-1-yl)-2-((3-(thiophen-2-yl)-[1,2,4]triazolo[4,3-b]pyridazin-6-yl)thio)propan-1-one] | partially inhibited
